According to US9868935B2, “Composition and method of stem cells for preservation of cardiac tissue” (CRIOESTAMINAL, SAÚDE E TECNOLOGIA, SA., priority 2012, dated 2018):

Assays:
[1] = test system: CD34+ cells; test: CD34+ cell proliferation after hypoxia 24 h then normoxia 6 days; assay type: cell-based, human; conditions: LPA 100 μM; 24 h hypoxia + 6 days normoxia (7 days period)
Description: LPA is highly mitogenic for quiescent cells. The mitogenic action of LPA involves the activation of a pertussis toxin-insensitive G protein with subsequent Ca^2+ mobilization and stimulation of protein kinase C, release of arachidonic acid in a GTP-dependent manner, and activation of a pertussis toxinsensitive Gi protein mediating inhibition of adenylate cyclase (van Corven, E. J., et al., Lysophosphatidate-induced cell proliferation: identification and dissection of signaling pathways mediated by G proteins. Cell, 1989. 59(1): p. 45-54). To determine whether LPA can induce the proliferation of CD34+ cells, a suspension of untreated or LPA-treated cells (2×10^^5 cells in 200 μL of X-vivo medium) was exposed to hypoxia for 24 h and then cultured under normoxia conditions for 6 additional days. LPA-treated cells increased their number approximately 3-fold over the 7 days period while untreated cells decreased to half of their initial number (FIG. 3A).

[2] = test system: human umbilical cord blood derived CD34+ cells; test: CD34+ cell survival in hypoxia and serum deprived conditions (Annexin V/PI flow cytometry); assay type: cell-based; conditions: for percentage of viable cells: LPA-treated (100 μM)
Protocol: In an embodiment, UCB CD34+ cells (1×10^^6 cells/mL) were incubated in X-Vivo media (Lonza) in a hypoxia chamber for 24 h (0.5% of O2 and 5% of CO2), in the presence or absence of pharmacological drugs, for further assessment of cell survival/apoptosis and necrosis by FACS analysis of the expression of annexin V and PI respectively. Preferably, cells were pretreated with the respective drugs for 1 hour before hypoxia, and treatment maintained during hypoxia.
In a preferred embodiment, to identify molecules that promote CD34+ cell survival in hypoxia and serum deprived conditions we developed an assay that uses human umbilical cord blood derived CD34+ cells (2×10^^5 cells per well of a 96-well plate) suspended in X-Vivo medium (used in clinical trials (Schachinger, V., et al., Intracoronary bone marrow-derived progenitor cells in acute myocardial infarction. N Engl J Med, 2006. 355(12): p. 1210-21)) and incubated in a hypoxia chamber at 0.5% O2, at 37° C., for 24 h. Some of the drugs selected have been approved by FDA for the treatment of cardiovascular diseases (e.g. Nebivolol Lombardo, R. M., et al., Effects of nebivolol versus carvedilol on left ventricular function in patients with chronic heart failure and reduced left ventricular systolic function. Am J Cardiovasc Drugs, 2006. 6(4): p. 259-63; Ibersatan Massie, B. M., et al., Irbesartan in patients with heart failure and preserved ejection fraction. N Engl J Med, 2008. 359(23): p. 2456-67), others are being evaluated in pre-clinical/clinical assays to improve heart function in patients/models with heart failure (e.g. INO1001 (Szabo, G., et al., INO-1001 a novel poly(ADP-ribose) polymerase (PARP) inhibitor improves cardiac and pulmonary function after crystalloid cardioplegia and extracorporal circulation. Shock, 2004. 21(5): p. 426-32); erythropoietin (Belonje, A. M., et al., Effects of erythropoietin after an acute myocardial infarction: rationale and study design of a prospective, randomized, clinical trial (HEBE III). Am Heart J, 2008. 155(5): p. 817-22); melatonin (Chen, Z., et al., Protective effect of melatonin on myocardial infarction. Am J Physiol Heart Circ Physiol, 2003. 284(5): p. H1618-24); VX-702 (Ma, X. L., et al., Inhibition of p38 mitogen-activated protein kinase decreases cardiomyocyte apoptosis and improves cardiac function after myocardial ischemia and reperfusion. Circulation, 1999. 99(13): p. 1685-91)), others are natural substances found in the human body (LPA). Cell viability was evaluated by flow cytometry using Annexin V/propidium iodide (PI) staining. Annexin V is a phospholipid-binding protein with specificity for phospatidyl serine, one of the earliest makers of cellular transition to an apoptotic state. This phospholipid is translocated from the inner to the outer leaflet of the plasma membrane (Koopman, G., et al., Annexin V for flow cytometric detection of phosphatidylserine expression on B cells undergoing apoptosis. Blood, 1994. 84(5): p. 1415-20.). PI enters in necrotic cells and binds to double-stranded nucleic acids, but is excluded from cells with normal integrity. According to FIG. 1, untreated CD34+ cells show a very poor survival, with only ˜31% of viable cells, ˜31% of apoptotic cells (Annexin V+/PI−) being the majority of the cells ˜39% at the necrotic stage (PI+). […] LPA (10 μM) was the drug with the highest pro-survival effect (˜69% of viable cells) and therefore further studied (FIGS. 1 and 2A).
Importantly, the percentage of viable cells in CD34+ treated with 1 μM of LPA and cultured under hypoxia conditions is similar to untreated cells cultured under normoxia conditions. The pro-survival effect of LPA decreases as a function of hypoxia time (FIG. 2C). The percentage of viable cells in LPA-treated CD34+ cells decreased from 78% at day 1 to 40% at day 3.

lysophosphatidic acid [LPA]
increase in cell number [1]: approximately 3 fold
survival of CD34+ cells vs control (untreated cells) ([2]; 1 μM LPA, hypoxia 24 h, P<0.001, n=6): statistically significant
viable cells ([2]; LPA 10 μM, hypoxia 0.5% O2, 24 h, serum free X-Vivo medium): ~69%
percentage of viable cells ([2]; hypoxia day 1): 78%
percentage of viable cells ([2]; hypoxia day 3): 40%
cell survival vs untreated cells ([2]; hypoxia 0.5% O2, 24 h, serum free, P<0.001): improved significantly
survival relatively to untreated cells ([2]; hypoxia and serum deprived conditions): double their survival
